From patent publication US20100049117A1, “Microporator for Porating a Biological Membrane and Integrated Permeant Administering System” (PANTEC BIOSOLUTIONS AG, priority 2005, published 2010)

Test: Serum concentration of drug over time after application onto microporated skin (FIG. 10a, 10b)
Format: in vivo
Conditions: for period of time of maximal serum concentration: transdermal
From the text: FIG. 10a, 10b show the serum concentration of a drug over time, with the same amount of drug but different permeation surfaces.
The drug is entering the permeation surface by passive diffusion. The amount of drug entering the permeation surface is mainly determined by the permeation surface A(t) over time. Therefore, the serum concentration as a function of time can be determined by an appropriate poration of the skin 1 with an initial microporation.
FIG. 10a to 10b show the administration of the same drug, for example 100 mg acetylsalicylic acid, the drug being arranged on the skin 1 as disclosed in FIG. 3c. Depending on the permeation surface A(t) as a function of time, the level of the serum concentration as well as the time period within which the drug is released, can be predescribed. In FIG. 10a the permeation surface A(t), not shown in detail, is chosen such that the maximal serum concentration is about 25 g/l over a short period of time of about two hours. […] A further advantage is that the same amount of drug, e.g. the same patch, applied onto the skin 1, causes a different serum concentration, depending only on the function of the permeation surface A over time. This allows administering the same drug in different ways. This also allows administering the same drug in an individual way, in that the initial permeation surface is created depending on individual parameters of the person the drug is applied to.

For `CC(=O)Oc1ccccc1C(=O)O` [acetylsalicylic acid], the “period of time of maximal serum concentration” value (FIG. 10a, 100 mg) was “about two”, the maximal serum concentration (FIG. 10b, 100 mg, fast application (turbo), patch on microporated skin (transdermal)) was “about 30 g/l” and the “period of time of maximal serum concentration” value (FIG. 10b, 100 mg, fast application (turbo)) was “about two”. For the same compound, the “course of serum concentration” value (oral application OA) was “heavy fluctuation” and the “course of serum concentration” value (transdermal application TD) was “about constant value”.
